Reference: US12053529B2, “Amino-reactive positively charged ATRP initiators that maintain their positive charge during synthesis of biomacro-initiators” (Carnegie Mellon University, priority 2018, dated 2024)
Starred links: 1 amine or outer side, 2 acyl side, 3 side chain; linkers in the order of their positions; H or OH if unused. Residues, ends and D or L forms follow the SMILES beside them. *: point of attachment. pNA = O=[N+]([O-])c1ccc(N*)cc1; Suc = O=C(CCC(=O)[*:2])[*:1]

Experiments:
[1] = test system: T1, C[C@H](NC(=O)CCC(=O)O)C(=O)N[C@@H](C)C(=O)N1CCC[C@H]1C(=O)N[C@@H](Cc1ccccc1)C(=O)Nc1ccc([N+](=O)[O-])cc1; test: Michaelis-Menten kinetics, Suc-AAPF-pNA hydrolysis, native CT; assay type: biochemical, bovine; conditions: other: pH 8, 37° C.
T1 construct: mature A, B and C chains of chymotrypsinogen A; unmodified
Experimental: (§1) CT and Lysozyme were used as received. AChE and Uricase were dialyzed in 25 mM sodium phosphate (pH 7.0) using a 25 kDa molecular weight cutoff dialysis tube in a refrigerator for 24 hours and then lyophilized. Copper (II) chloride, sodium ascorbate, 1,1,4,7,10,10-hexamethyltriethylenetetramine (HMTETA), 2-bromo-2-methylpropionyl bromide, 3-(dimethylamino)-1-propylamine, N,N′-diisopropylcarbodimine, fluorescamine, acetylthiocholine iodide, 5,5′-dithiobis(2-nitrobenzoic acid) (DTNB) were purchased from Sigma Aldrich. 4-bromobutyric acid and N-hydroxysuccinimide were purchased from TCI USA (Portland, OR). Micro BCA assay kit was purchased from Thermo Fisher Scientific.
(§2) CT: N-succinyl-Ala-Ala-Pro-Phe-p-nitroanilide (Suc-AAPF-pNA; SEQ ID NO:1) was used as a substrate for CT. Substrate (0-20 mg/mL in DMSO, 30 μL) was added to a 1.5 mL cuvette with sodium phosphate buffer (pH 8, 100 mM). Native CT, CT-initiators, and CT-polymers (0.1 mg/mL protein, 4 μM, 10 μL) was added to the cuvette with substrate and buffer. The initial substrate hydrolysis rate was measured in triplicate by recording the increase in absorbance at 412 nm over the first 60 seconds after mixing using a Lambda 2 Perkin Elmer ultraviolet-visible spectrometer equipped with a temperature-controlled cell holder at 37° C. Michaelis-Menten parameters were determined using nonlinear curve fitting of initial hydrolysis rate versus substrate concentration in GraphPad.
Michaelis-Menten kinetics were measured at pH 8 and 37° C. using Succinyl-Ala-Ala-Pro-Phe-p-nitroanilide (Suc-AAPF-pNA; SEQ ID NO:1), a hydrophobic and negatively charged substrate for CT that binds to the hydrophobic S1 binding pocket and is then cleaved by the catalytic triad (Ser 195, His 57, Asp 102). […] The observed decrease in KM upon neutral initiator attachment could have been the result of the hydrophobicity of the initiator. The partition coefficient (log D) of a lysine side chain at pH 8.0 is −1.00. After covalent attachment of the neutral initiator, the log D value of the new product rose to 1.82. […]

[2] = target: acetylcholinesterase (AChE) from Electrophorus electricus, positive initiator (+) (Electrophorus electricus, UniProt O42275); test: Michaelis-Menten kinetics, acetylthiocholine iodide hydrolysis, AChE-positive initiator; assay type: biochemical, Electrophorus electricus (electric eel); conditions: AChE-positive initiator vs AChE-neutral initiator
Experimental: as §1
(§3) AChE: 100 μL of NHS-functionalized ATRP initiator solution in DMSO (12.7 μmol, 4.3 mg for neutral and 5.5 mg for positive initiator, respectively) was added to AChE solution (7 mg of AChE in 10 mL of 100 mM phosphate (pH 8.0)) and stirred at room temperature for 2 hours. […] The concentration of AChE initiator conjugates was determined using a Micro BCA Assay Kit.
AChE: Acetylthiocholine iodide (0-100 μL of 10 mM in 100 mM sodium phosphate buffer (pH 7.4)) and 10 μL of DTNB solution (50 mM in DMSO) was mixed with 100 mM sodium phosphate (980-880 μL, pH 7.4). […] Michaelis-Menten parameters were determined by nonlinear curve fitting of initial rate versus substrate concentration plots using Prism 7 software (GraphPad).

[3] = target: acetylcholinesterase (AChE) from Electrophorus electricus, neutral initiator (N)-pSMA (Electrophorus electricus, UniProt O42275); test: Michaelis-Menten kinetics, acetylthiocholine iodide hydrolysis, AChE (N)-pSMA; assay type: biochemical, Electrophorus electricus (electric eel); conditions: pH 7.4, 37° C., DTNB
Experimental: as §1, §3
(§4) CT-pCBMA and pSMA conjugate synthesis: A solution of monomer (230 mg for CBMA and 246 mg for SMA, 1.0 mmol respectively) and CT-initiator (23 mg for neutral and 25 mg for positive initiator, 10 μmol of initiator) in 100 mM sodium phosphate (20 mL, pH 7) was sealed and bubbled with nitrogen gas in an ice bath for 30 minutes. […] Conjugate CT content was determined by BCA assay as described elsewhere (Lee et al. 2005, supra). […]
AChE: Acetylthiocholine iodide (0-100 μL of 10 mM in 100 mM sodium phosphate buffer (pH 7.4)) and 10 μL of DTNB solution (50 mM in DMSO) was mixed with 100 mM sodium phosphate (980-880 μL, pH 7.4). […] The initial rate was monitored by recording the increasing in absorbance as 412 nm using an UV-VIS absorbance spectrometer with a temperature controlled cell folder at 37° C. Michaelis-Menten parameters were determined by nonlinear curve fitting of initial rate versus substrate concentration plots using Prism 7 software (GraphPad).

[4] = target: α-chymotrypsin (CT) from bovine pancreas, CT-positive initiator (CT(+)) (Bos taurus, UniProt P00766); test: Michaelis-Menten kinetics, Suc-AAPF-pNA hydrolysis, CT-positive initiator; assay type: biochemical; conditions: pH 8, 37° C.; CT-positive initiator vs native CT
Experimental: as §1, with “Scientific. […]” for “Scientific.”
as §2, with “Substrate (0-20 mg/mL in DMSO, 30 μL) was added to a 1.5 mL cuvette with sodium phosphate buffer (pH 8, 100 mM). Native CT, CT-initiators, and CT-polymers (0.1 mg/mL protein, 4 μM, 10 μL) was added to the cuvette with substrate and buffer.” left out, “GraphPad. […]” for “GraphPad.”

[5] = target: α-chymotrypsin (CT) from bovine pancreas, CT-neutral initiator (CT(N)) (Bos taurus, UniProt P00766); test: Michaelis-Menten kinetics, Suc-AAPF-pNA hydrolysis, CT-neutral initiator; assay type: biochemical; conditions: pH 8, 37° C.; CT-neutral initiator vs native CT
Experimental: as §1, with “Scientific. […]” for “Scientific.”
as §2, with “Substrate (0-20 mg/mL in DMSO, 30 μL) was added to a 1.5 mL cuvette with sodium phosphate buffer (pH 8, 100 mM). Native CT, CT-initiators, and CT-polymers (0.1 mg/mL protein, 4 μM, 10 μL) was added to the cuvette with substrate and buffer.” left out, “GraphPad. […]” for “GraphPad.”

[6] = target: α-chymotrypsin (CT) from bovine pancreas, CT-positive initiator-pCBMA (Bos taurus, UniProt P00766); test: Michaelis-Menten kinetics, Suc-AAPF-pNA hydrolysis, CT-positive initiator-pCBMA; assay type: biochemical; conditions: pH 8, 37° C.
Experimental: as §1, with “Scientific. […]” for “Scientific.”
as §4
(§5) CT: N-succinyl-Ala-Ala-Pro-Phe-p-nitroanilide (Suc-AAPF-pNA; SEQ ID NO:1) was used as a substrate for CT. […] Michaelis-Menten parameters were determined using nonlinear curve fitting of initial hydrolysis rate versus substrate concentration in GraphPad. […]

[7] = target: α-chymotrypsin (CT) from bovine pancreas, CT-mixed initiator (average of 9 neutral and 5 positive initiators per CT) (Bos taurus, UniProt P00766); test: Michaelis-Menten kinetics, Suc-AAPF-pNA hydrolysis, CT-mixed initiator; assay type: biochemical; conditions: pH 8, 37° C.
Experimental: as §1
as §2, with “Native CT, CT-initiators, and CT-polymers (0.1 mg/mL protein, 4 μM, 10 μL) was added to the cuvette with substrate and buffer.” left out, “GraphPad. […]” for “GraphPad.”

[8] = target: α-chymotrypsin (CT) from bovine pancreas, CT-neutral initiator-pCBMA (Bos taurus, UniProt P00766); test: Michaelis-Menten kinetics, Suc-AAPF-pNA hydrolysis, CT-neutral initiator-pCBMA; assay type: biochemical; conditions: pH 8, 37° C.
Experimental: as §1, with “Scientific. […]” for “Scientific.”
as §4, §5

[9] = target: α-chymotrypsin (CT) from bovine pancreas, CT-positive initiator-pSMA (Bos taurus, UniProt P00766); test: Michaelis-Menten kinetics, Suc-AAPF-pNA hydrolysis, CT-positive initiator-pSMA; assay type: biochemical; conditions: pH 8, 37° C.; CT-positive initiator-pSMA vs CT-neutral initiator-pSMA
Experimental: as §1, with “Scientific. […]” for “Scientific.”
as §4, §5

Sequence of acetylcholinesterase (AChE) from Electrophorus electricus, neutral initiator (N)-pSMA (O42275 24-633): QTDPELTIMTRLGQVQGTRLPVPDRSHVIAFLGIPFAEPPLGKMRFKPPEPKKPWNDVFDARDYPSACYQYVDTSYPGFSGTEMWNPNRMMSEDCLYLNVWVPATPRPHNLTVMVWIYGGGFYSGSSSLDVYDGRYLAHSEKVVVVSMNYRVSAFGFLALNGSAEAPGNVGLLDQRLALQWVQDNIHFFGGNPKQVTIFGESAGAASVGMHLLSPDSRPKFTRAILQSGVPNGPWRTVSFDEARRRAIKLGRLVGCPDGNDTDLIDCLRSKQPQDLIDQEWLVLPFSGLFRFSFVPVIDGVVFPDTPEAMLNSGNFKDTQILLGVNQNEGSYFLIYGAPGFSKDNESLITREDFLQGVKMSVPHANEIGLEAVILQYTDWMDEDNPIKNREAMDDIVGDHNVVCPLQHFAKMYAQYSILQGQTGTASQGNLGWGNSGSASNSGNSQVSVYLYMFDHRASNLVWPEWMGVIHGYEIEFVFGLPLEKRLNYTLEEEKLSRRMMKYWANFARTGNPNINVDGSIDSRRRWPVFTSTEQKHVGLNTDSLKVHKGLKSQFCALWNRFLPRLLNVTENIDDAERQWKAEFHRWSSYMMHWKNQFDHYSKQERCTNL
Sequence of acetylcholinesterase (AChE) from Electrophorus electricus, positive initiator (+) (O42275 24-633): as above

What does the source list for “α-chymotrypsin (CT) from bovine pancreas (type II), native (Bos taurus)”?
Km [1]: 107 ± 5 µM; kcat [1]: 26.6 ± 0.3 s⁻¹; kcat/Km [1]: 250000 ± 10000 M⁻¹ s⁻¹

Which “KM increase versus AChE-neutral initiator” value [2] does the source give for `CC(=O)SCC[N+](C)(C)C.[I-]` [acetylthiocholine iodide] here?
The value was “about 2.4 ×”.

What about the KM [3] of the same compound?
The KM was “undetectable”.

What about the kcat [3] of the same compound?
Its kcat is “undetectable”.

And the kcat/KM [3]?
Its kcat/KM is “undetectable”.

For `C[C@H](NC(=O)CCC(=O)O)C(=O)N[C@@H](C)C(=O)N1CCC[C@H]1C(=O)N[C@@H](Cc1ccccc1)C(=O)Nc1ccc([N+](=O)[O-])cc1` [Suc-AAPF-pNA, N-succinyl-Ala-Ala-Pro-Phe-p-nitroanilide] (Suc-AAPF-pNA), which “change in KM versus native CT” value [4] is on record?
The value was “decrease in KM by half”.

And the “change in KM versus native CT” value [5]?
Its value is “decrease in KM by half”.

And the kcat/KM ([6]; CT-positive initiator-pCBMA)?
The kcat/KM was 420000 ± 20000 M⁻¹ s⁻¹.

What about the “overall catalytic efficiency versus native CT” value ([6]; CT-positive initiator-pCBMA vs native CT) of the same compound?
The value was “nearly double that of native CT”.

What about the kcat [7] of the same compound?
The kcat was 16.7 ± 0.4 s⁻¹.

What about the kcat/KM [7] of the same compound?
Its kcat/KM is 200000 ± 10000 M⁻¹ s⁻¹.

What about the kcat/KM [8] of the same compound?
Its kcat/KM is 300000 ± 10000 M⁻¹ s⁻¹.

What about the “overall activity (kcat and KM) versus CT-neutral initiator-pSMA” value [9] of the same compound?
The value was ~20 fold.
